From PubChem BioAssay AID330 (DTP/NCI, 2004)
Values joined by “and” are separate entries in the source; they are usually repeats but may differ in a detail not shown here. Identical values can stand only once. Toxic doses and inconclusive results are not listed. Rule for the calls: active = survival T/C of 150% or more; inactive = T/C below 125% in these data. Peptide text beside a SMILES is read from it.

System: P388 leukemia ip, CD2F1 mice, survival T/C
Assay: NCI In Vivo Anticancer Drug Screen. Data for tumor model P388 Leukemia (intraperitoneal) in CD2F1 (CDF1) mice
Settings: endpoint: median survival time, higher = longer survival
Summary of the method: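 Mice carrying the transplanted tumor received test compound or vehicle. Survival was recorded in each group, and the value is the treated-group measurement divided by that of the vehicle-treated control group.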

[1] = dose: 100.0 mg/kg/injection, schedule: Q04DX003 (ip), vehicle: Klucel (hydroxypropylcellulose) (HPC)
[2] = dose: 60.0 mg/kg/injection, schedule: Q01DX005 (ip), vehicle: Klucel (hydroxypropylcellulose) (HPC)
[3] = dose: 120.0 mg/kg/injection, schedule: Q01DX005 (ip), vehicle: Klucel (hydroxypropylcellulose) (HPC)
[4] = dose: 60.0 mg/kg/injection, schedule: Q01DX005 (ip), vehicle: saline
[5] = dose: 120.0 mg/kg/injection, schedule: Q01DX005 (ip), vehicle: saline
[6] = dose: 50.0 mg/kg/injection, schedule: Q01DX009 (ip), vehicle: saline with Tween-80
[7] = dose: 100.0 mg/kg/injection, schedule: Q01DX009 (ip), vehicle: saline with Tween-80
[8] = dose: 200.0 mg/kg/injection, schedule: Q01DX009 (ip), vehicle: saline with Tween-80
[9] = dose: 50.0 mg/kg/injection, schedule: Q01DX005 (ip), vehicle: saline
[10] = dose: 100.0 mg/kg/injection, schedule: Q01DX005 (ip), vehicle: saline
[11] = dose: 200.0 mg/kg/injection, schedule: Q01DX005 (ip), vehicle: saline
[12] = dose: 100.0 mg/kg/injection, schedule: Q01DX001 (ip), vehicle: saline with Tween-80
[13] = dose: 60.0 mg/kg/injection, schedule: Q01DX005 (ip), vehicle: saline with Tween-80
[14] = dose: 240.0 mg/kg/injection, schedule: Q01DX005 (ip), vehicle: saline with Tween-80
[15] = dose: 200.0 mg/kg/injection, schedule: Q04DX003 (ip), vehicle: saline with Tween-80

Measured: T/C

Cc1ccc(S(=O)(=O)F)c(Cl)c1
inactive: [1] 95 % of control | dose: 200.0 mg/kg/injection, schedule: Q04DX003 (ip), vehicle: Klucel (hydroxypropylcellulose) (HPC) 119 % of control | dose: 400.0 mg/kg/injection, schedule: Q04DX003 (ip), vehicle: Klucel (hydroxypropylcellulose) (HPC) 103 % of control

O=C1OC2(C=C(O)C1=O)CCCCC2
inactive: [2] 106 % of control | [3] 107 % of control | dose: 240.0 mg/kg/injection, schedule: Q01DX005 (ip), vehicle: Klucel (hydroxypropylcellulose) (HPC) 116 % of control

O=C(O)C(O)C(F)(F)C(F)(F)C(F)(F)C(F)(F)C(O)C(=O)O (stereo not given)
inactive: [4] 93 % of control | [5] 93 % of control | dose: 240.0 mg/kg/injection, schedule: Q01DX005 (ip), vehicle: saline 86 % of control

NC(=O)CCCC(C(N)=O)(c1ccccc1)c1ccccc1
inactive: dose: 100.0 mg/kg/injection, schedule: Q01DX001 (ip), vehicle: Klucel (hydroxypropylcellulose) (HPC) 101 % of control | dose: 200.0 mg/kg/injection, schedule: Q01DX001 (ip), vehicle: Klucel (hydroxypropylcellulose) (HPC) 100 % of control | dose: 400.0 mg/kg/injection, schedule: Q01DX001 (ip), vehicle: Klucel (hydroxypropylcellulose) (HPC) 100 % of control

OCC1OC(O)C(Cl)(Cl)C(O)C1O (stereo not given)
inactive: dose: 50.0 mg/kg/injection, schedule: Q01DX009 (ip), vehicle: saline 107 % of control | dose: 100.0 mg/kg/injection, schedule: Q01DX009 (ip), vehicle: saline 117 % of control | dose: 200.0 mg/kg/injection, schedule: Q01DX009 (ip), vehicle: saline 112 % of control

CCC[As](C)SCC1OC(OC(C)=O)C(OC(C)=O)C(OC(C)=O)C1OC(C)=O (stereo not given)
inactive: [6] 110 % of control | [7] 102 % of control | [8] 118 % of control

COc1cc2c(c(Cl)c1OC)CCN(C)CC2c1ccccc1 (stereo not given)
inactive: [4] 102 % of control | [5] 98 % of control

CCOC(=O)COc1cc2c(cc1C(C)c1ccc(OCC)cc1)OCO2 (stereo not given)
inactive: dose: 50.0 mg/kg/injection, schedule: Q01DX005 (ip), vehicle: Klucel (hydroxypropylcellulose) (HPC) 93 % of control | dose: 100.0 mg/kg/injection, schedule: Q01DX005 (ip), vehicle: Klucel (hydroxypropylcellulose) (HPC) 93 % of control | dose: 200.0 mg/kg/injection, schedule: Q01DX005 (ip), vehicle: Klucel (hydroxypropylcellulose) (HPC) 88 % of control

CC1(COC(=O)C2(C)CO2)CO1 (stereo not given)
inactive: dose: 25.0 mg/kg/injection, schedule: Q01DX005 (ip), vehicle: water 99 % of control | [9] 91 % of control | dose: 50.0 mg/kg/injection, schedule: Q01DX005 (ip), vehicle: water 101 % of control and 115 % of control | [10] 97 % of control | dose: 100.0 mg/kg/injection, schedule: Q01DX005 (ip), vehicle: water 120 % of control | [11] 91 % of control

O=C(NC(=O)C(F)(F)C(F)(F)C(F)(F)F)Nc1cccc(F)c1
inactive: [6] 100 % of control | [7] 100 % of control | [8] 100 % of control

CC(=O)N(C(C)=O)/C(=C/c1cn(C(C)=O)c2ccccc12)C(=O)c1ccc(C)cc1
inactive: [12] 105 % of control | dose: 200.0 mg/kg/injection, schedule: Q01DX001 (ip), vehicle: saline with Tween-80 104 % of control | dose: 400.0 mg/kg/injection, schedule: Q01DX001 (ip), vehicle: saline with Tween-80 98 % of control

CC(C(O)c1ccc2cc(Br)c3ccccc3c2c1)N(C)C (stereo not given)
inactive: dose: 50.0 mg/kg/injection, schedule: Q01DX005 (ip), vehicle: saline with Tween-80 100 % of control | dose: 100.0 mg/kg/injection, schedule: Q01DX005 (ip), vehicle: saline with Tween-80 91 % of control

CCc1c(O)c2c(n(C)c1=O)CC(C)(C)NC2=S
inactive: [2] 100 % of control | [3] 100 % of control

Cc1c(C)[n+]([O-])c(-c2ccc(N(C)C)cc2)n1O
inactive: [6] 100 % of control | [7] 91 % of control | [8] 94 % of control

CC1(C)CC(C#N)CC(C)(C)N1O
inactive: [1] 100 % of control

CSCCC(N)C(=O)NC(CC(N)=O)C(=O)O (stereo not drawn) (H-Met-Asn-OH; configuration not given here)
inactive: [9] 98 % of control | [10] 101 % of control | [11] 99 % of control

COc1ccc([N+](=O)[O-])cc1NC(=O)c1ccc2c(c1)C(=O)OC2=O
inactive: dose: 7.5 mg/kg/injection, schedule: Q01DX005 (ip), vehicle: saline with Tween-80 97 % of control | dose: 15.0 mg/kg/injection, schedule: Q01DX005 (ip), vehicle: saline with Tween-80 87 % of control | dose: 30.0 mg/kg/injection, schedule: Q01DX005 (ip), vehicle: saline with Tween-80 90 % of control and 94 % of control | [13] 89 % of control | [14] 93 % of control

CSc1nnc2sc3cc(C)ccc3n12
inactive: dose: 50.0 mg/kg/injection, schedule: Q01DX009 (ip), vehicle: Klucel (hydroxypropylcellulose) (HPC) 102 % of control | dose: 100.0 mg/kg/injection, schedule: Q01DX009 (ip), vehicle: Klucel (hydroxypropylcellulose) (HPC) 103 % of control | dose: 200.0 mg/kg/injection, schedule: Q01DX009 (ip), vehicle: Klucel (hydroxypropylcellulose) (HPC) 102 % of control

COc1ccc(C2c3c(ccc4ccccc34)Oc3ccc4ccccc4c32)cc1
inactive: [13] 87 % of control | dose: 120.0 mg/kg/injection, schedule: Q01DX005 (ip), vehicle: saline with Tween-80 86 % of control | [14] 90 % of control

CCCCCSc1ncnc2nc[nH]c12
inactive: [6] 100 % of control | [7] 109 % of control | dose: 100.05 mg/kg/injection, schedule: Q04DX003 (ip), vehicle: saline with Tween-80 95 % of control | [8] 104 % of control | [15] 104 % of control

O=C1OC(=O)C2C3C=CC(C12)C1C2C(=O)OC(=O)C2C31 (stereo not given)
inactive: dose: 100.0 mg/kg/injection, schedule: Q04DX003 (ip), vehicle: saline with Tween-80 103 % of control | [15] 99 % of control | dose: 400.0 mg/kg/injection, schedule: Q04DX003 (ip), vehicle: saline with Tween-80 96 % of control | dose: 600.0 mg/kg/injection, schedule: Q04DX003 (ip), vehicle: saline with Tween-80 96 % of control

COc1ccc2c(c1)N(CCC1CCCCN1C)c1ccccc1S2 (stereo not given)
inactive: dose: 12.5 mg/kg/injection, schedule: Q04DX003 (ip), vehicle: saline 116 % of control | dose: 25.0 mg/kg/injection, schedule: Q04DX003 (ip), vehicle: saline 115 % of control | dose: 50.0 mg/kg/injection, schedule: Q04DX003 (ip), vehicle: saline 119 % of control

CC1=NN(C(=O)c2ccncc2)C(=O)C1N=Nc1ccc(S(=O)(=O)Nc2nccs2)cc1 (stereo not given)
inactive: [6] 102 % of control | [7] 97 % of control | [8] 96 % of control

Cc1cc(O)c(O)cc1C/C=C/c1ccccc1
inactive: dose: 2.5 mg/kg/injection, schedule: Q01DX009 (ip), vehicle: saline with Tween-80 101 % of control | dose: 5.0 mg/kg/injection, schedule: Q01DX009 (ip), vehicle: saline with Tween-80 100 % of control | dose: 10.0 mg/kg/injection, schedule: Q01DX009 (ip), vehicle: saline with Tween-80 100 % of control

C1=C(c2ccccc2)CS1
inactive: [12] 102 % of control

O=[N+]([O-])c1ccc(/C=C/C=C/c2ccc(Cl)c(S(=O)(=O)F)c2)c(Cl)c1
inactive: dose: 100.0 mg/kg/injection, schedule: Q01DX009 (ip), vehicle: saline sonified 95 % of control | dose: 200.0 mg/kg/injection, schedule: Q01DX009 (ip), vehicle: saline sonified 95 % of control | dose: 400.0 mg/kg/injection, schedule: Q01DX009 (ip), vehicle: saline sonified 91 % of control

CC(C)C(N)C(=O)NC(C(=O)O)C(C)C (stereo not given)
inactive: dose: 6.25 mg/kg/injection, schedule: Q01DX005 (ip), vehicle: saline 95 % of control | dose: 12.5 mg/kg/injection, schedule: Q01DX005 (ip), vehicle: saline 95 % of control | dose: 25.0 mg/kg/injection, schedule: Q01DX005 (ip), vehicle: saline 96 % of control | [9] 98 % of control | [10] 88 % of control and 104 % of control | [11] 100 % of control
